Cc1nc(C)c(C)nc1C
solubility (mole fraction)
Settings	in acetone	in acetonitrile	in ethanol	in ethyl acetate	in isopropanol	in methanol	in methyl acetate	in n-butanol	in n-propanol
273.15 K	0.0459	0.0279	0.0644	0.0958	0.0534	0.111	0.0758	0.106	0.102
278.15 K	0.0592	0.034	0.0775	0.113	0.0702	0.119	0.094	0.126	0.114
283.15 K	0.0712	0.0405	0.0911	0.136	0.0814	0.143	0.112	0.152	0.138
288.15 K	0.0869	0.0503	0.11	0.16	0.0998	0.162	0.133	0.175	0.158
293.15 K	0.106	0.0587	0.128	0.181	0.115	0.194	0.156	0.205	0.185
298.15 K	0.132	0.0743	0.162	0.212	0.142	0.222	0.189	0.235	0.213
303.15 K	0.156	0.0888	0.186	0.244	0.166	0.262	0.216	0.262	0.245
308.15 K	0.185	0.115	0.216	0.284	0.196	0.296	0.254	0.302	0.3
313.15 K	0.209	0.147	0.255	0.34	0.249	0.342	0.291	0.351	0.347
